Measured values: PubChem BioAssay (NCI)
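The compound was tested at five concentrations on cells cultured in 96-well plates, with a 48-hour exposure period. At the TGI there is no net growth.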

Tests used:
Assay in all cases: DTP human tumour cell line panel, 48 h
786-0 renal = test system: 786-0 renal
A498 renal = test system: A498 renal
A549 NSCLC = test system: A549 NSCLC
ACHN renal = test system: ACHN renal
BT-549 breast = test system: BT-549 breast
CAKI-1 renal = test system: CAKI-1 renal
CCRF-CEM leukemia = test system: CCRF-CEM leukemia
COLO 205 colon = test system: COLO 205 colon
DU-145 prostate = test system: DU-145 prostate
EKVX NSCLC = test system: EKVX NSCLC
HCC-2998 colon = test system: HCC-2998 colon
HCT-116 colon = test system: HCT-116 colon
HCT-15 colon = test system: HCT-15 colon
HL-60(TB) leukemia = test system: HL-60(TB) leukemia
HOP-92 NSCLC = test system: HOP-92 NSCLC
HS 578T breast = test system: HS 578T breast
HT29 colon = test system: HT29 colon
IGROV1 ovarian = test system: IGROV1 ovarian
K-562 leukemia = test system: K-562 leukemia
KM12 colon = test system: KM12 colon
LOX IMVI melanoma = test system: LOX IMVI melanoma
M14 melanoma = test system: M14 melanoma
MALME-3M melanoma = test system: MALME-3M melanoma
MCF7 breast = test system: MCF7 breast
MDA-MB-231 breast = test system: MDA-MB-231 breast
MDA-MB-435 = test system: MDA-MB-435
MDA-N = test system: MDA-N
MOLT-4 leukemia = test system: MOLT-4 leukemia
NCI-H226 lung = test system: NCI-H226 lung
NCI-H23 lung = test system: NCI-H23 lung
NCI-H460 lung = test system: NCI-H460 lung
NCI-H522 lung = test system: NCI-H522 lung
NCI/ADR-RES ovarian = test system: NCI/ADR-RES ovarian
OVCAR-3 ovarian = test system: OVCAR-3 ovarian
OVCAR-4 ovarian = test system: OVCAR-4 ovarian
OVCAR-5 ovarian = test system: OVCAR-5 ovarian
OVCAR-8 ovarian = test system: OVCAR-8 ovarian
PC-3 prostate = test system: PC-3 prostate
SF-268 CNS = test system: SF-268 CNS
SF-295 CNS = test system: SF-295 CNS
SF-539 CNS = test system: SF-539 CNS
SK-MEL-2 melanoma = test system: SK-MEL-2 melanoma
SK-MEL-28 melanoma = test system: SK-MEL-28 melanoma
SK-MEL-5 melanoma = test system: SK-MEL-5 melanoma
SK-OV-3 ovarian = test system: SK-OV-3 ovarian
SN12C renal = test system: SN12C renal
SNB-19 CNS = test system: SNB-19 CNS
SNB-75 CNS = test system: SNB-75 CNS
SW-620 colon = test system: SW-620 colon
T-47D breast = test system: T-47D breast
TK-10 renal = test system: TK-10 renal
U251 CNS = test system: U251 CNS
UACC-257 melanoma = test system: UACC-257 melanoma
UACC-62 melanoma = test system: UACC-62 melanoma
UO-31 renal = test system: UO-31 renal
HOP-62 NSCLC = test system: HOP-62 NSCLC
RPMI-8226 leukemia = test system: RPMI-8226 leukemia
RXF 393 renal = test system: RXF 393 renal

## C/C=C1/C[C@@H](C)[C@@](C)(O)C(=O)OCC2=CC[N+]3([O-])CC[C@@H](OC1=O)[C@@H]23 (stereo partly specified)
786-0 renal
  TGI: > 100 µM
A498 renal
  TGI: > 100 µM
A549 NSCLC
  TGI: > 100 µM
ACHN renal
  TGI: > 100 µM
BT-549 breast
  TGI: > 100 µM
CAKI-1 renal
  TGI: > 100 µM
CCRF-CEM leukemia
  TGI: > 100 µM
COLO 205 colon
  TGI: > 100 µM
DU-145 prostate
  TGI: > 100 µM
EKVX NSCLC
  TGI: > 100 µM
HCC-2998 colon
  TGI: > 100 µM
HCT-116 colon
  TGI: > 100 µM
HCT-15 colon
  TGI: > 100 µM
HL-60(TB) leukemia
  TGI: > 100 µM
HOP-92 NSCLC
  TGI: > 100 µM
HS 578T breast
  TGI: > 100 µM
HT29 colon
  TGI: > 100 µM
IGROV1 ovarian
  TGI: > 100 µM
K-562 leukemia
  TGI: > 100 µM
KM12 colon
  TGI: > 100 µM
LOX IMVI melanoma
  TGI: > 100 µM
M14 melanoma
  TGI: > 100 µM
MALME-3M melanoma
  TGI: > 100 µM
MCF7 breast
  TGI: > 100 µM
MDA-MB-231 breast
  TGI: > 100 µM
MDA-MB-435
  TGI: > 100 µM
MDA-N
  TGI: > 100 µM
MOLT-4 leukemia
  TGI: > 100 µM
NCI-H226 lung
  TGI: > 100 µM
NCI-H23 lung
  TGI: > 100 µM
NCI-H460 lung
  TGI: > 100 µM
NCI-H522 lung
  TGI: > 100 µM
NCI/ADR-RES ovarian
  TGI: > 100 µM
OVCAR-3 ovarian
  TGI: > 100 µM
OVCAR-4 ovarian
  TGI: > 100 µM
OVCAR-5 ovarian
  TGI: > 100 µM
OVCAR-8 ovarian
  TGI: > 100 µM
PC-3 prostate
  TGI: > 100 µM
SF-268 CNS
  TGI: > 100 µM
SF-295 CNS
  TGI: > 100 µM
SF-539 CNS
  TGI: > 100 µM
SK-MEL-2 melanoma
  TGI: > 100 µM
SK-MEL-28 melanoma
  TGI: > 100 µM
SK-MEL-5 melanoma
  TGI: > 100 µM
SK-OV-3 ovarian
  TGI: > 100 µM
SN12C renal
  TGI: > 100 µM
SNB-19 CNS
  TGI: > 100 µM
SNB-75 CNS
  TGI: > 100 µM
SW-620 colon
  TGI: > 100 µM
T-47D breast
  TGI: > 100 µM
TK-10 renal
  TGI: > 100 µM
U251 CNS
  TGI: > 100 µM
UACC-257 melanoma
  TGI: > 100 µM
UACC-62 melanoma
  TGI: > 100 µM
UO-31 renal
  TGI: > 100 µM

## CCOC(=O)C1=CC(C)(C(=O)OCC)Nc2c(nc(SC)[nH]c2=O)N1 (stereo unspecified)
786-0 renal
  TGI: > 10 µM
A498 renal
  TGI: > 10 µM
A549 NSCLC
  TGI: > 10 µM
ACHN renal
  TGI: > 10 µM
BT-549 breast
  TGI: > 10 µM
CAKI-1 renal
  TGI: > 10 µM
CCRF-CEM leukemia
  TGI: > 10 µM
COLO 205 colon
  TGI: > 10 µM
DU-145 prostate
  TGI: > 10 µM
EKVX NSCLC
  TGI: > 10 µM
HCC-2998 colon
  TGI: > 10 µM
HCT-116 colon
  TGI: > 10 µM
HCT-15 colon
  TGI: > 10 µM
HOP-62 NSCLC
  TGI: > 10 µM
HOP-92 NSCLC
  TGI: > 10 µM
HS 578T breast
  TGI: > 10 µM
HT29 colon
  TGI: > 10 µM
IGROV1 ovarian
  TGI: > 10 µM
K-562 leukemia
  TGI: > 10 µM
KM12 colon
  TGI: > 10 µM
LOX IMVI melanoma
  TGI: > 10 µM
M14 melanoma
  TGI: > 10 µM
MALME-3M melanoma
  TGI: > 10 µM
MCF7 breast
  TGI: > 10 µM
MDA-MB-231 breast
  TGI: > 10 µM
MDA-MB-435
  TGI: > 10 µM
MDA-N
  TGI: > 10 µM
MOLT-4 leukemia
  TGI: > 10 µM
NCI-H226 lung
  TGI: > 10 µM
NCI-H23 lung
  TGI: > 10 µM
NCI-H460 lung
  TGI: > 10 µM
NCI-H522 lung
  TGI: > 10 µM
NCI/ADR-RES ovarian
  TGI: > 10 µM
OVCAR-3 ovarian
  TGI: > 10 µM
OVCAR-4 ovarian
  TGI: > 10 µM
OVCAR-5 ovarian
  TGI: > 10 µM
OVCAR-8 ovarian
  TGI: > 10 µM
PC-3 prostate
  TGI: > 10 µM
RPMI-8226 leukemia
  TGI: > 10 µM
RXF 393 renal
  TGI: > 10 µM
SF-268 CNS
  TGI: > 10 µM
SF-295 CNS
  TGI: > 10 µM
SF-539 CNS
  TGI: > 10 µM
SK-MEL-2 melanoma
  TGI: > 10 µM
SK-MEL-28 melanoma
  TGI: > 10 µM
SK-MEL-5 melanoma
  TGI: > 10 µM
SK-OV-3 ovarian
  TGI: > 10 µM
SN12C renal
  TGI: > 10 µM
SNB-19 CNS
  TGI: > 10 µM
SNB-75 CNS
  TGI: > 10 µM
SW-620 colon
  TGI: > 10 µM
T-47D breast
  TGI: > 10 µM
TK-10 renal
  TGI: > 10 µM
U251 CNS
  TGI: > 10 µM
UACC-257 melanoma
  TGI: > 10 µM
UO-31 renal
  TGI: > 10 µM
